Measurements: PubChem BioAssay AID180 (DTP/NCI, 2004)
Values joined by “and” are separate entries in the source; they are usually repeats but may differ in a detail not shown here. Equal entries are not always repeated.

System: BDF1 mice, Adenocarcinoma 755 s.c., tumor weight T/C
Assay: NCI In Vivo Anticancer Drug Screen. Data for tumor model Adenocarcinoma 755 (subcutaneous) in B6D2F1 (BDF1) mice
Conditions: endpoint: mean tumor weight, higher = larger tumour
Method in brief: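 Tumor-bearing mice receive test compound while controls get vehicle alone. Antitumor effect is scored from survival or tumor dimensions as a T/C quotient.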

[1] = dose: 25.0 mg/kg/injection, schedule: Q01DX011 (sc), vehicle: steriod suspending solution
[2] = dose: 200.0 mg/kg/injection, schedule: Q01DX011 (sc), vehicle: steriod suspending solution
[3] = dose: 400.0 mg/kg/injection, schedule: Q01DX011 (sc), vehicle: steriod suspending solution

In the case of `CC(C)n1cnc2c(=S)nc[nH]c21`, the T/C (dose: 0.2 mg/kg/injection, schedule: Q01DX011 (ip), vehicle: carboxymethylcellulose (CMC)) is reported as 114 % of control, the T/C (dose: 0.39 mg/kg/injection, schedule: Q01DX011 (ip), vehicle: carboxymethylcellulose (CMC)) is reported as 67 % of control and the T/C (dose: 0.45 mg/kg/injection, schedule: Q01DX011 (ip), vehicle: carboxymethylcellulose (CMC)) is reported as 63 % of control. The T/C (dose: 0.78 mg/kg/injection, schedule: Q01DX011 (ip), vehicle: carboxymethylcellulose (CMC)) was 111 % of control, the T/C (dose: 0.9 mg/kg/injection, schedule: Q01DX011 (ip), vehicle: carboxymethylcellulose (CMC)) was 62 % of control and the T/C (dose: 0.9 mg/kg/injection, schedule: Q01DX011 (oral), vehicle: carboxymethylcellulose (CMC)) was 52 % of control. The T/C (dose: 1.56 mg/kg/injection, schedule: Q01DX011 (ip), vehicle: carboxymethylcellulose (CMC)) was 50 % of control, the T/C (dose: 1.8 mg/kg/injection, schedule: Q01DX011 (ip), vehicle: carboxymethylcellulose (CMC)) was 15 % of control and the T/C (dose: 1.8 mg/kg/injection, schedule: Q01DX011 (oral), vehicle: carboxymethylcellulose (CMC)) was 11 % of control. The T/C (dose: 3.12 mg/kg/injection, schedule: Q01DX011 (ip), vehicle: carboxymethylcellulose (CMC)) was 9 % of control, the T/C (dose: 3.6 mg/kg/injection, schedule: Q01DX011 (ip), vehicle: carboxymethylcellulose (CMC)) was 1 % of control and the T/C (dose: 3.6 mg/kg/injection, schedule: Q01DX011 (oral), vehicle: carboxymethylcellulose (CMC)) was 5 % of control. The T/C (dose: 3.62 mg/kg/injection, schedule: Q01DX011 (ip), vehicle: carboxymethylcellulose (CMC)) was 7 % of control and 14 % of control, the T/C (dose: 6.25 mg/kg/injection, schedule: Q01DX011 (ip), vehicle: carboxymethylcellulose (CMC)) was 6 % of control and the T/C (dose: 7.25 mg/kg/injection, schedule: Q01DX011 (ip), vehicle: carboxymethylcellulose (CMC)) was 3 % of control and 6 % of control. For the same molecule, the T/C (dose: 7.25 mg/kg/injection, schedule: Q01DX011 (oral), vehicle: carboxymethylcellulose (CMC)) was 11 % of control, the T/C (dose: 12.5 mg/kg/injection, schedule: Q01DX011 (ip), vehicle: carboxymethylcellulose (CMC)) was 3 % of control and the T/C (dose: 14.5 mg/kg/injection, schedule: Q01DX011 (ip), vehicle: carboxymethylcellulose (CMC)) was 1 % of control. For the same molecule, the T/C (dose: 25.0 mg/kg/injection, schedule: Q01DX011 (ip), vehicle: carboxymethylcellulose (CMC)) was 8 % of control, the T/C (dose: 29.0 mg/kg/injection, schedule: Q01DX011 (oral), vehicle: carboxymethylcellulose (CMC)) was 2 % of control and the T/C (dose: 50.0 mg/kg/injection, schedule: Q01DX011 (ip), vehicle: carboxymethylcellulose (CMC)) was 3 % of control and 6 % of control.

For `NNC(=O)CCC(N)C(=O)O` (configuration not stated), the T/C (dose: 10.21 mg/kg/injection, schedule: Q01DX011 (ip), vehicle: carboxymethylcellulose (CMC)) was 121 % of control, the T/C (dose: 13.0 mg/kg/injection, schedule: Q01DX011 (ip), vehicle: carboxymethylcellulose (CMC)) was 91 % of control and the T/C (dose: 20.42 mg/kg/injection, schedule: Q01DX011 (ip), vehicle: carboxymethylcellulose (CMC)) was 96 % of control. The T/C (dose: 26.0 mg/kg/injection, schedule: Q01DX011 (ip), vehicle: carboxymethylcellulose (CMC)) was 60 % of control, the T/C (dose: 40.85 mg/kg/injection, schedule: Q01DX011 (ip), vehicle: carboxymethylcellulose (CMC)) was 151 % of control and the T/C (dose: 43.05 mg/kg/injection, schedule: Q01DX011 (ip), vehicle: carboxymethylcellulose (CMC)) was 97 % of control. The T/C (dose: 52.0 mg/kg/injection, schedule: Q01DX011 (ip), vehicle: carboxymethylcellulose (CMC)) was 70 % of control, the T/C (dose: 81.7 mg/kg/injection, schedule: Q01DX011 (ip), vehicle: carboxymethylcellulose (CMC)) was 67 % of control and the T/C (dose: 86.1 mg/kg/injection, schedule: Q01DX011 (ip), vehicle: carboxymethylcellulose (CMC)) was 98 % of control. The T/C (dose: 104.0 mg/kg/injection, schedule: Q01DX011 (ip), vehicle: carboxymethylcellulose (CMC)) was 56 % of control.

`C/C(=N\NC(=O)c1ccncc1)c1ccc(Cl)cc1Cl` was tested, and the T/C (dose: 30.0 mg/kg/injection, schedule: Q01DX011 (ip), vehicle: methylcellulose (MC)) was 41 % of control and the T/C (dose: 60.0 mg/kg/injection, schedule: Q01DX011 (ip), vehicle: methylcellulose (MC)) was 58 % of control.

With `c1ccc(N2N=C3N(c4ccccc4)C2N3c2ccccc2)cc1` the T/C (dose: 15.0 mg/kg/injection, schedule: Q01DX011 (ip), vehicle: other) was 87 % of control.

With `CSc1ncn(C)c2ncnc1-2` the T/C (dose: 30.0 mg/kg/injection, schedule: Q01DX011 (ip), vehicle: carboxymethylcellulose (CMC)) was 58 % of control and the T/C (dose: 60.0 mg/kg/injection, schedule: Q01DX011 (ip), vehicle: carboxymethylcellulose (CMC)) was 71 % of control.

For `C[C@H]1C[C@@H]2[C@H]([C@@H](O)C[C@@]3(C)[C@H]2CC[C@]3(O)C(=O)CF)[C@@]2(C)C=CC(=O)C=C12`, the T/C (dose: 2.5 mg/kg/injection, schedule: Q01DX011 (sc), vehicle: steriod suspending solution) was 82 % of control, the T/C (dose: 5.0 mg/kg/injection, schedule: Q01DX011 (sc), vehicle: steriod suspending solution) was 57 % of control and the T/C (dose: 10.0 mg/kg/injection, schedule: Q01DX011 (sc), vehicle: steriod suspending solution) was 48 % of control. The T/C (dose: 21.0 mg/kg/injection, schedule: Q01DX011 (sc), vehicle: steriod suspending solution) was 64 % of control, the T/C [1] was 91 % of control and the T/C (dose: 42.0 mg/kg/injection, schedule: Q01DX011 (sc), vehicle: saline) was 39 % of control. The T/C (dose: 42.0 mg/kg/injection, schedule: Q01DX011 (sc), vehicle: steriod suspending solution) was 12 % of control and 25 % of control (2×), the T/C (dose: 50.0 mg/kg/injection, schedule: Q01DX011 (sc), vehicle: steriod suspending solution) was 59 % of control and the T/C (dose: 84.0 mg/kg/injection, schedule: Q01DX011 (sc), vehicle: saline) was 61 % of control. For the same molecule, the T/C (dose: 84.0 mg/kg/injection, schedule: Q01DX011 (sc), vehicle: steriod suspending solution) was 9 % of control, the T/C (dose: 100.0 mg/kg/injection, schedule: Q01DX011 (sc), vehicle: steriod suspending solution) was 55 % of control and the T/C (dose: 168.0 mg/kg/injection, schedule: Q01DX011 (sc), vehicle: saline) was 19 % of control. For the same molecule, the T/C (dose: 168.0 mg/kg/injection, schedule: Q01DX011 (sc), vehicle: steriod suspending solution) was 1 % of control, the T/C [2] was 57 % of control and the T/C (dose: 336.0 mg/kg/injection, schedule: Q01DX011 (sc), vehicle: saline) was 19 % of control. The T/C [3] was 23 % of control, the T/C (dose: 500.0 mg/kg/injection, schedule: Q01DX011 (sc), vehicle: steriod suspending solution) was 39 % of control and the T/C (dose: 600.0 mg/kg/injection, schedule: Q01DX011 (sc), vehicle: steriod suspending solution) was 37 % of control. The T/C (dose: 700.0 mg/kg/injection, schedule: Q01DX011 (sc), vehicle: steriod suspending solution) was 17 % of control.

In the case of `CN(C)[C@@H]1C(=O)C(C(=O)NCc2nc3[nH]cnc(=S)c3[nH]2)=C(O)[C@@]2(O)C(=O)C3=C(O)c4c(O)cccc4[C@@](C)(O)[C@H]3C[C@@H]12`, the T/C (dose: 1.0 mg/kg/injection, schedule: Q01DX011 (ip), vehicle: carboxymethylcellulose (CMC)) is reported as 64 % of control, the T/C (dose: 2.0 mg/kg/injection, schedule: Q01DX011 (ip), vehicle: carboxymethylcellulose (CMC)) is reported as 44 % of control and the T/C (dose: 3.0 mg/kg/injection, schedule: Q01DX011 (ip), vehicle: carboxymethylcellulose (CMC)) is reported as 78 % of control. The T/C (dose: 4.0 mg/kg/injection, schedule: Q01DX011 (ip), vehicle: carboxymethylcellulose (CMC)) was 62 % of control, the T/C (dose: 14.0 mg/kg/injection, schedule: Q01DX011 (ip), vehicle: carboxymethylcellulose (CMC)) was 1 % of control and 3 % of control and 5 % of control and the T/C (dose: 28.0 mg/kg/injection, schedule: Q01DX011 (ip), vehicle: carboxymethylcellulose (CMC)) was 1 % of control and 2 % of control. The T/C (dose: 56.0 mg/kg/injection, schedule: Q01DX011 (ip), vehicle: carboxymethylcellulose (CMC)) was 6 % of control.

With `CC1CN1P(=O)(Oc1ccccc1)N1CC1C` (configuration not stated) the T/C (dose: 12.5 mg/kg/injection, schedule: Q01DX011 (ip), vehicle: saline) was 89 % of control and 106 % of control, the T/C (dose: 25.0 mg/kg/injection, schedule: Q01DX011 (ip), vehicle: saline) was 90 % of control and 78 % of control and the T/C (dose: 50.0 mg/kg/injection, schedule: Q01DX011 (ip), vehicle: saline) was 42 % of control and 50 % of control.

For `C[C@]1(O)CC[C@H]2[C@@H]3CC[C@@H]4C[C@H](O)CC[C@]4(C)[C@@]3(F)[C@@H](O)C[C@@]21C`, the T/C [1] was 73 % of control, the T/C [2] was 90 % of control and the T/C [3] was 87 % of control.

`O=C(O)c1[nH]c(=O)[nH]c(=O)c1F` was tested, and the T/C (dose: 1.5 mg/kg/injection, schedule: Q01DX011 (ip), vehicle: other) was 53 % of control, the T/C (dose: 3.0 mg/kg/injection, schedule: Q01DX011 (ip), vehicle: other) was 79 % of control and the T/C (dose: 6.0 mg/kg/injection, schedule: Q01DX011 (ip), vehicle: other) was 37 % of control. For the same molecule, the T/C (dose: 12.0 mg/kg/injection, schedule: Q01DX011 (ip), vehicle: other) was 10 % of control.

For `C[C@]12C=CC(=O)C=C1CC[C@H]1[C@@H]3C[C@@H](O)[C@](O)(C(=O)CO)[C@@]3(C)C[C@H](O)[C@@]12F`, the T/C (dose: 1.5 mg/kg/injection, schedule: Q01DX011 (sc), vehicle: steriod suspending solution) was 98 % of control, the T/C (dose: 3.0 mg/kg/injection, schedule: Q01DX011 (sc), vehicle: steriod suspending solution) was 79 % of control and the T/C (dose: 3.12 mg/kg/injection, schedule: Q01DX011 (sc), vehicle: steriod suspending solution) was 77 % of control. The T/C (dose: 6.0 mg/kg/injection, schedule: Q01DX011 (sc), vehicle: steriod suspending solution) was 41 % of control and the T/C (dose: 12.5 mg/kg/injection, schedule: Q01DX011 (sc), vehicle: steriod suspending solution) was 32 % of control and 44 % of control and 53 % of control.
